Measurements reported in paper doi:10.1101/2021.04.08.439011v1 (biorxiv, 2021).

Legend:
AKT2 = AKT2 (Homo sapiens, UniProt P31751); settings: 1 µM; binder
AMPK-alpha1 = AMPK-alpha1 (Homo sapiens, UniProt Q13131); settings: 1 µM; binder
CAMK1 = CAMK1 (Homo sapiens, UniProt Q14012); settings: 1 µM; binder
CAMK1D = CAMK1D (Homo sapiens, UniProt Q8IU85); settings: 1 µM; binder
CSNK1D = CSNK1D (Homo sapiens, UniProt P48730); settings: 1 µM; binder
DAPK3 = DAPK3 (Homo sapiens, UniProt O43293); settings: 1 µM; binder
DYRK2 = DYRK2 (Homo sapiens, UniProt Q92630); settings: 1 µM; binder
EPHA3 = EPHA3 (Homo sapiens, UniProt P29320); settings: 1 µM; binder
EPHA6 = EPHA6 (Homo sapiens, UniProt Q9UF33); settings: 1 µM; binder
Chain of EPHA6 (Q9UF33 whole entry): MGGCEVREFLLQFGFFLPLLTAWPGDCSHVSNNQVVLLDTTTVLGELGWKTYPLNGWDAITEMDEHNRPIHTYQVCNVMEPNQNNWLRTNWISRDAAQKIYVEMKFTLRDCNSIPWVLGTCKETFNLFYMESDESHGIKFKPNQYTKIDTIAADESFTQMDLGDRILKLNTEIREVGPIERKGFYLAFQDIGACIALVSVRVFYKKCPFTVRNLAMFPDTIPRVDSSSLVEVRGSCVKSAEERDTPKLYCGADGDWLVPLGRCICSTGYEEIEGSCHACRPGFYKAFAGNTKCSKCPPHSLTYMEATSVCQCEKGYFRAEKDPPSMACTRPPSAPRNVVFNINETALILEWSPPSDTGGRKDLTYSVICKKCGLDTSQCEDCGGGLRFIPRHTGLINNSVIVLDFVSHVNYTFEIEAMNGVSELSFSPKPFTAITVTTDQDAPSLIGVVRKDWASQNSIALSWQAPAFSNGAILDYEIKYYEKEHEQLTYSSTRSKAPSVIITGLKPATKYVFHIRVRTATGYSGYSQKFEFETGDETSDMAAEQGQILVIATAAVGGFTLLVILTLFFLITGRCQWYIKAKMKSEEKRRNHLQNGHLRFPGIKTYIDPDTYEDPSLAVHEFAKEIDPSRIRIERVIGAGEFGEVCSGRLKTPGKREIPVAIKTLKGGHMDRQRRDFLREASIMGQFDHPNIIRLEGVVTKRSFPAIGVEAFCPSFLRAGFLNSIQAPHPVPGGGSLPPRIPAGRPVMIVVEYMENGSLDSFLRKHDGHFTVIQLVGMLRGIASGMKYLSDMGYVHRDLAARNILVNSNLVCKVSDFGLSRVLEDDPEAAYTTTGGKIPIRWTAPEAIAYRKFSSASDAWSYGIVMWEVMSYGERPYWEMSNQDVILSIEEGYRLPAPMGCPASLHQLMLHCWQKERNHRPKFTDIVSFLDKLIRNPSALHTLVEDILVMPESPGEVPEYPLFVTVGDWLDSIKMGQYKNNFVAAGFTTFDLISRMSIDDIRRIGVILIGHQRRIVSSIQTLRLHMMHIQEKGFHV

FES = FES (Homo sapiens, UniProt P07332); settings: 1 µM; binder
GSK3A = GSK3A (Homo sapiens, UniProt P49840); settings: 1 µM; binder
Chain of GSK3A (P49840 whole entry): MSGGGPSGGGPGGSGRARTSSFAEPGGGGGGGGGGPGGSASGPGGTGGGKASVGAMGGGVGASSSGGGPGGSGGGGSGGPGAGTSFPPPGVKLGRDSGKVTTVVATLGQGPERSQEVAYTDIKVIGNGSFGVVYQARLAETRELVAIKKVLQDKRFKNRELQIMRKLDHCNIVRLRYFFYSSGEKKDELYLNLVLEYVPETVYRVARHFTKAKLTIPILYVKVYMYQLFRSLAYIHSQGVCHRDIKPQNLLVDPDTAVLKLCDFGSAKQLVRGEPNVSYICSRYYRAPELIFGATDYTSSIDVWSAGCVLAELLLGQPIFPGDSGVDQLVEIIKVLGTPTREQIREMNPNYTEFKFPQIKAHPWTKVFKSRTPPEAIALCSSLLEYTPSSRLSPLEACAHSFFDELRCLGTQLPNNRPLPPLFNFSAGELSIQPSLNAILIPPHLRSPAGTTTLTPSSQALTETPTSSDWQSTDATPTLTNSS

HIPK2 = HIPK2 (Homo sapiens, UniProt Q9H2X6); settings: 1 µM; binder
LCK = LCK (Homo sapiens, UniProt P06239); settings: 1 µM; binder
MAP3K4 = MAP3K4 (Homo sapiens, UniProt Q9Y6R4); settings: 1 µM; binder
MST1 = MST1 (Homo sapiens, UniProt Q13043); settings: 1 µM; binder
Chain of MST1 (Q13043 whole entry): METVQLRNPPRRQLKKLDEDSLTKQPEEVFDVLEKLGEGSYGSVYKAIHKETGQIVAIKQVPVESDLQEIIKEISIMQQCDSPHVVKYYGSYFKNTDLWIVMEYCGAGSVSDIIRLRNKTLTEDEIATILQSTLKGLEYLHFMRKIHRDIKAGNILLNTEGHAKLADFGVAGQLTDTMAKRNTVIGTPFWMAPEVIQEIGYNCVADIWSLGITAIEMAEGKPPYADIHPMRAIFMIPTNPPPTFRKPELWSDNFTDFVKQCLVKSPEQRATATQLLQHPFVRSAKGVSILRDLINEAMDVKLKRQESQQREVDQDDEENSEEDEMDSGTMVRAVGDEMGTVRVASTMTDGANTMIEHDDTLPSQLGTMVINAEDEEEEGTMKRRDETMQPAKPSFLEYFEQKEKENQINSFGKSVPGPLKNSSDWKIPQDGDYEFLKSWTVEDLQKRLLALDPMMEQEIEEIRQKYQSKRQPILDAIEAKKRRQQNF

NEK3 = NEK3 (Homo sapiens, UniProt P51956); settings: 1 µM; binder
PAK7 = PAK7 (Homo sapiens, UniProt Q9P286); settings: 1 µM; binder
PCTK2 = PCTK2 (Homo sapiens, UniProt Q00537); settings: 1 µM; binder
Chain of PCTK2 (Q00537 whole entry): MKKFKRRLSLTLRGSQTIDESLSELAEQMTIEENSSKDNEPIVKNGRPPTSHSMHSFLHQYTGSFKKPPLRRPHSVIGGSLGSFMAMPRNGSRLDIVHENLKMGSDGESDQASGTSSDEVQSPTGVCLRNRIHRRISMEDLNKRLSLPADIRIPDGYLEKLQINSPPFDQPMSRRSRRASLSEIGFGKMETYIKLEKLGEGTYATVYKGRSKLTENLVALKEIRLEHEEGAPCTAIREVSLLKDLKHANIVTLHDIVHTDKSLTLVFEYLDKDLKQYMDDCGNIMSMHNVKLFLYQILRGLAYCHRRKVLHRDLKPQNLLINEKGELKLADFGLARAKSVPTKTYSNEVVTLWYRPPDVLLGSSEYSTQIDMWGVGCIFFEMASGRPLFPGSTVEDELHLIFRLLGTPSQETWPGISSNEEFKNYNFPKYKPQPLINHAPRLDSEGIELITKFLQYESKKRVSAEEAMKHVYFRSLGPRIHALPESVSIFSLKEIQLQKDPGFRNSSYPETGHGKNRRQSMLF

PIK3C2B = PIK3C2B (Homo sapiens, UniProt O00750); settings: 1 µM; binder
PRKCD = PRKCD (Homo sapiens, UniProt Q05655); settings: 1 µM; binder
PRKG1 = PRKG1 (Homo sapiens, UniProt Q13976); settings: 1 µM; binder
PRKG2 = PRKG2 (Homo sapiens, UniProt Q13237); settings: 1 µM; binder
RAF1 = RAF1 (Homo sapiens, UniProt P04049); settings: 1 µM; binder
RET(V804M) = RET(V804M) (Homo sapiens, UniProt P07949, V804M); settings: 1 µM; binder
RIOK2 = RIOK2 (Homo sapiens, UniProt Q9BVS4); settings: 1 µM; binder
RIPK1 = RIPK1 (Homo sapiens, UniProt Q13546); settings: 1 µM; binder
Chain of RIPK1 (Q13546 whole entry): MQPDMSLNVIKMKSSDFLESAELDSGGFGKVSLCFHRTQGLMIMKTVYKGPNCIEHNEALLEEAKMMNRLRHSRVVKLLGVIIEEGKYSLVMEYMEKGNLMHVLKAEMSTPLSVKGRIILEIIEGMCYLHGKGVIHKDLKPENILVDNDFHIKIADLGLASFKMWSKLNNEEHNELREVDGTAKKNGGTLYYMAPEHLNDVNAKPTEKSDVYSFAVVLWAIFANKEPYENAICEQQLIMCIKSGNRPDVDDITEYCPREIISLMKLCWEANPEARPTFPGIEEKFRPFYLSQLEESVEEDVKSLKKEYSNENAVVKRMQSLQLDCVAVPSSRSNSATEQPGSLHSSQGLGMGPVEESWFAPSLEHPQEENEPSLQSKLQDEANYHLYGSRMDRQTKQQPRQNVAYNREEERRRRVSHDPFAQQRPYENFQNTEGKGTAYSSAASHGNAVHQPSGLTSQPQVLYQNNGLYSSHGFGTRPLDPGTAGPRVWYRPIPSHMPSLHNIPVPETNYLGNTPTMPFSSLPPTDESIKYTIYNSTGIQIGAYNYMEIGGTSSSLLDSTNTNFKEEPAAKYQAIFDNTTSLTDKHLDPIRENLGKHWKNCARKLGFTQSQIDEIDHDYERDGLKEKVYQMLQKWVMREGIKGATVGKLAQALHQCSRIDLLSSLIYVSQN

RPS6KA4 = RPS6KA4 (Homo sapiens, UniProt O75676); settings: Kin.Dom.1 N-terminal; binder
TNNI3K = TNNI3K (Homo sapiens, UniProt Q59H18); settings: 1 µM; binder
Chain of TNNI3K (Q59H18 whole entry): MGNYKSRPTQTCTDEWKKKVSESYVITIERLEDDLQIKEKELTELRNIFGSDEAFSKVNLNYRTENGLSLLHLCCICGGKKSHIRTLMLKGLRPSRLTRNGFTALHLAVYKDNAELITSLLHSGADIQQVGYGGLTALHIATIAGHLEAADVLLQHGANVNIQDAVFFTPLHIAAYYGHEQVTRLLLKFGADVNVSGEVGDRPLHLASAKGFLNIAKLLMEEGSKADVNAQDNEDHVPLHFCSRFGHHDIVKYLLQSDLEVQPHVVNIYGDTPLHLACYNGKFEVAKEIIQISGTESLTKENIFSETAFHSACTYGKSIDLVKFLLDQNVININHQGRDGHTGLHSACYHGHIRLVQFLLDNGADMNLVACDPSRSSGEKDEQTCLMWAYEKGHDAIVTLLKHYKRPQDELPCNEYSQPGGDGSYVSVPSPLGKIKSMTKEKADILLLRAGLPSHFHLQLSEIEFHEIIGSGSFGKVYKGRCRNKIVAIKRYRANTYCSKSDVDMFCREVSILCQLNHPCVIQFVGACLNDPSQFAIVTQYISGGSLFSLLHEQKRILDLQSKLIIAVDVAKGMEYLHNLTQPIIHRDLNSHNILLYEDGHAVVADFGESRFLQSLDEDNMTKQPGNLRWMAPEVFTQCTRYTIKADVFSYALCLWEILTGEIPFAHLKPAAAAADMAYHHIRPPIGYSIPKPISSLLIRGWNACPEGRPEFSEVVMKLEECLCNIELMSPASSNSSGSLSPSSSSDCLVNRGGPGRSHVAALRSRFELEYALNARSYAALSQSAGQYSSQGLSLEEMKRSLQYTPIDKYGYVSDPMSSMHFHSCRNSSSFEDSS

TRKC = TRKC (Homo sapiens, UniProt Q16288); settings: 1 µM; binder
WNK4 = WNK4 (Homo sapiens, UniProt Q96J92); settings: 1 µM; binder

Chain of AMPK-alpha1 (Q13131 whole entry): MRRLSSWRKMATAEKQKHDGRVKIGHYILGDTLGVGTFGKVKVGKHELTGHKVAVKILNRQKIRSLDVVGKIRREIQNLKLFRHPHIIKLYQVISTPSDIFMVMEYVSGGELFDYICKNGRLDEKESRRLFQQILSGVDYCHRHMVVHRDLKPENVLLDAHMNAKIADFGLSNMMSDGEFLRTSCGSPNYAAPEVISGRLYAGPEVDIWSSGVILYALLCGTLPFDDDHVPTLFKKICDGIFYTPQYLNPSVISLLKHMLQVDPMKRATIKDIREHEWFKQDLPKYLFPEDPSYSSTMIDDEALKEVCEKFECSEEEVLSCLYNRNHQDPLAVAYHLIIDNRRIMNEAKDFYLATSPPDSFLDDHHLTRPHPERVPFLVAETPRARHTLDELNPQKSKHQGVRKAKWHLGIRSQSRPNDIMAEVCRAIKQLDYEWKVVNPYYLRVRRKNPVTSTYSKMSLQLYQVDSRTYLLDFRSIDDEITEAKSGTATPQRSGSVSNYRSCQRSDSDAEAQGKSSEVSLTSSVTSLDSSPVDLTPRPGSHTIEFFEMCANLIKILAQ
Chain of CSNK1D (P48730 whole entry): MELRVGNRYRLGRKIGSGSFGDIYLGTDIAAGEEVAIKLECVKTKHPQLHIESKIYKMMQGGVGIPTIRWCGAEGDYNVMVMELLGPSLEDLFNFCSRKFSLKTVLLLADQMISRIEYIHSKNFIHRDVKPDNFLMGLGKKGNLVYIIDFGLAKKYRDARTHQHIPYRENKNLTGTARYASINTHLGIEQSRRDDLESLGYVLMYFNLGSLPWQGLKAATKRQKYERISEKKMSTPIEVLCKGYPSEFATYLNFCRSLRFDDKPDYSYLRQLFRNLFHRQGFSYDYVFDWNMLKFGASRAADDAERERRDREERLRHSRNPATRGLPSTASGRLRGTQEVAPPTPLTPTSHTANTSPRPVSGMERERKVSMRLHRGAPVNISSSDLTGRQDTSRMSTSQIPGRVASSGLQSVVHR

In the case of `CNc1ncc2cc(-c3ccc(-c4cccc(C)n4)cc3Cl)c(=O)n(C[C@H]3OC[C@H](N)CO3)c2n1` [compound 6, G-5555], the “Percent Control” value (AKT2) was 100%, the “Percent Control” value (AMPK-alpha1) was 40% and the “Percent Control” value (CAMK1) was 59%. For the same compound, the “Percent Control” value (CAMK1D) was 2.5%, the “Percent Control” value (CSNK1D) was 100% and the “Percent Control” value (DAPK3) was 100%. The “Percent Control” value (DYRK2) was 100%, the “Percent Control” value (EPHA3) was 88% and the “Percent Control” value (EPHA6) was 100%. The “Percent Control” value (FES) was 84%, the “Percent Control” value (GSK3A) was 100% and the “Percent Control” value (HIPK2) was 100%. The “Percent Control” value (LCK) was 11%, the “Percent Control” value (MAP3K4) was 52% and the “Percent Control” value (MST1) was 51%. For the same compound, the “Percent Control” value (NEK3) was 72%, the “Percent Control” value (PAK7) was 82% and the “Percent Control” value (PCTK2) was 100%. For the same compound, the “Percent Control” value (PIK3C2B) was 100%, the “Percent Control” value (PRKCD) was 100% and the “Percent Control” value (PRKG1) was 100%. The “Percent Control” value (PRKG2) was 94%, the “Percent Control” value (RAF1) was 100% and the “Percent Control” value (RET(V804M)) was 100%. For the same compound, the “Percent Control” value (RIOK2) was 100%, the “Percent Control” value (RIPK1) was 100% and the “Percent Control” value (RPS6KA4) was 100%. The “Percent Control” value (TNNI3K) was 98%, the “Percent Control” value (TRKC) was 96% and the “Percent Control” value (WNK4) was 18%.
